Laboratory results: patent US9389219B2, “Methods for screening inhibitors of tumor associated protein aggregation” (Vrije Universiteit Brussel, priority 2011, dated 2016)
Entries after “also recorded” stand apart in the source; their conditions may differ. Read-outs that look alike come from different tables or passages of the source. Where a SMILES comes first, the peptide text is derived from it. The star is where a group is joined. Cbz = O=C(OCc1ccccc1)*

How the values were obtained:
Assay type in all cases: cell-based, human
[1] = test system: WT p53 in U2OS cells; assay: Native page analysis of p53 in treated U2OS cells
[2] = test system: WT p53 in U2OS cells; assay: Immunofluorescent staining for p53 inclusions, InCell Analyzer 2000; details: >1000 cells/condition
Text: It is becoming increasingly evident that resistance is also seen in cancers harboring wild-type p53, which might be explained by a change of conformation of wt p53 into a “mutant configuration.”^76 Cell lines harboring wt p53 were used and enhanced the expression using previously described chemotherapeutic agents. […] When performing immunofluorescent staining for p53 in U2OS cells, increased accumulation of non-soluble, inclusions of p53 in the cytoplasm was subsequently observed.

[3] = test system: WT p53 in U2OS cells; assay: Western blot of p53 in U2OS cells treated with chemotherapeutic agents
[4] = test system: mutant p53; assay: BN-PAGE of p53 mutants over-expressed in SaOS-2 cells with MG-132; details: I254R double mutants
Procedure: SaOS-2 or Hela cells were rinsed with ice-cold 20 mM Tris-HCl, 150 mM NaCl, pH 7.4 (TBS) and lysed with 18 mM 3-[(3-cholamidopropyl) dimethylammonio]-1-propanesulfonic acid (CHAPS) in TBS with DNase and protease inhibitors for 30 minutes at 21° C. or on ice, respectively. Whole-cell lysate was fractionated by both SDS-PAGE (NuPAGE system, Invitrogen) and Blue-Native PAGE (NativePAGE system, Invitrogen) following the product manuals. For SDS-PAGE, sample was denatured at 95° C. for 10 minutes in the presence of 2% sodium dodecyl sulfate (SDS) and then fractionated by 10% Bis-Tris gels in MES-SDS running buffer (0.1% SDS, 50 mM MES, and 50 mM Tris-Base). For Blue-Native PAGE, cell lysate was added with 20% glycerol and 5 mM Coomassie G-250 before loading onto 3-12% Novex Bis-Tris gradient gels. […] After three times of rinsing with TBS containing 0.1% TWEEN® 20 (TBST), the membrane was stained with horseradish peroxidase (HRP)-conjugated goat anti-mouse IgG (Promega) and visualized with electrochemical luminescence (ECL) system. […]
(§1) In the degradation stability test, protein synthesis was blocked by 60 μg/mL cycloheximide 24 hours after transfection, and cells were lysed 0, 3, 6, 12, 24 and 48 hours after the addition of cycloheximide. […] Cells were analyzed by immunofluorescence after 24 hours.

[5] = test system: mutant p53 inclusions in SaOS-2 cells; assay: Nocodazole treatment of transfected SaOS-2 cells, immunofluorescence of aggresomal inclusions
Procedure: To further investigate the aggresomal nature of the observed inclusions, several strategies were adopted. (i) Since the formation of cytoplasmic inclusions in aggresomes is an active process that depends on cytoskeletal integrity,^15 transfected cells were treated with nocodazole, a small chemical that disrupts microtubule assembly. […] (ii) The oligomerization state of p53 in SaOS-2 cells by Blue-Native PAGE (BN-PAGE) and Western blot analysis was also assessed, after cell lysis with a mild detergent (CHAPS). […] In denaturing but non-reducing PAGE, the oligomers and aggregates were dissociated into monomers, and all mutants were expressed at similar levels (FIG. 2, panel c).
Since co-aggregation of proteins depends strictly on sequence similarity rather than hydrophobicity,^27 mutant p53 might also be able to induce co-aggregation and inactivation of p63 and p73. To investigate this hypothesis, mutant p53 and the transactivation domain (TA) of p63 or p73 (TAp63α/TAp73α) were co-expressed in SaOS-2 cells. […]
as §1

Row | SMILES | p53 high molecular-weight species (native page) [1] | increase in cytoplasmic aggregates of p53 [2] | p53 expression level (Western blot) [3] | p53 expression level (Western blot) ([3]; listed as Cisplatin) | proteasomal degradation of mutant p53 [4] | vimentin network and aggregates of mutant p53 and p63/p73 ([5]; SaOS-2 cells co-expressing aggregating p53 mutants and TAp63α/TAp73α) | cellular distribution of mutant p53 ([5]; SaOS-2 cells over-expressing mutant p53)
1 | N.N.[Cl][Pt][Cl] [cisplatin] | part of p53 ran as a high molecular weight smear; also recorded: high molecular-weight species of p53 | greater than three-fold increase | started to accumulate WT p53 | increased expression levels of p53 |  |  | 
2 | CC(C)C[C@@H](C=O)NC(=O)[C@H](CC(C)C)NC(=O)[C@H](CC(C)C)NC(=O)OCc1ccccc1 [MG132] (Cbz-Leu-Leu-Leu-aldehyde) | smear was comparable |  |  |  | inhibited proteasomal degradation of mutant p53 |  | 
3 | COC(=O)Nc1nc2ccc(C(=O)c3cccs3)cc2[nH]1 [nocodazole] |  |  |  |  |  | disrupted the vimentin network and resulted in diffused punctuate aggregates in the cytoplasm | shifted from a punctate to a diffuse cytoplasmic staining
